From US7268164B2, “Anti-epileptogenic agents” (Queens University at Kingston, priority 1997, dated 2007)
Counter-ions that a name gives are not always drawn.

Assays:
solubility in saline = type: physicochemical
[1] = tested on: spontaneous recurrent seizures; test: spontaneous recurrent seizures (SRS) model of epilepsy; type: in vivo, Sprague-Dawley rat; settings: for effective in decreasing seizures by at least 50%: administered at Time 1 (Day 1, after status epilepticus, before onset of SRS); for effective in decreasing seizures by at least 50% / effective in decreasing seizures (seizure frequency) by at least 50%: 20 mg/kg/day i.v. for 10 days; for effective in decreasing seizures (seizure frequency) by at least 50%: administered at Time 2 (Day 30, established SRS)
Description: The “spontaneous recurrent seizures” (SRS) model of epilepsy was used to evaluate candidate compounds in a model for Phase 1 epileptogenesis (see, e.g., Mello, E. et al., Epilepsia (1993) 34:985; Cavalheiro, J. et al., Epilepsia (1991) 32:778). In the SRS model, an adult male Sprague-Dawley rat (c. 260 g) is given pilocarpine by injection (380 mg/kg i.p.). Within 25 minutes, the animal enters status epilepticus, which typically lasts for 15-20 hours (although about 10% of animals die at this stage). The rat is allowed to spontaneously recover and is given food and water ad lib. and maintained on a 12 hour/12 hour light/dusk cycle. Rats are usually studied in groups of four. Beginning on about day 13-15, the rats develop spontaneous recurrent seizures, which occur at the rate of about 4-5 per week. The rats are videotaped 24 hours per day, and the videotapes are reviewed for behavioral seizures (including head nodding, forelimb clonus, and rearing), which are counted. The animals are watched for three months, permitting evaluation of a sufficient number of seizures. […] Administration of the candidate compound at Time 1 permits evaluation for anti-epileptogenic properties (ability to prevent the onset of seizures); administration of compounds at Time 2 permits evaluation of drugs as anti-ictogenics with the ability to suppress established seizures.
As a reference, the standard anticonvulsant phenytoin was administered (20 mg/kg/day i.v. for 10 day) at either Time 1 or Time 2.

mice = test: testing of dioxapiperazine compounds in mice (Example 7); type: in vivo; design: key to Activity: 300 mg/kg / Activity: 100 mg/kg / Activity: 30 mg/kg: 0 (inactive); 1: Activity on scale of 0 (inactive) to 4.; 2: Activity on scale of 0 (inactive) to 4.; 3: Activity on scale of 0 (inactive) to 4.; Activity on scale of 0 (inactive) to 4; settings: for Activity: 100 mg/kg / Activity: 300 mg/kg / Activity: 30 mg/kg: mice, 30 minutes and four hours after administration; for anti-convulsive activity: animal model system of Table 4, in words
Description: (§1) Selected compounds were dissolved in 0.9% NaCl or suspended in a mixture of 30% polyethylene glycol 400 and 70% water, and tested in an animal model. Briefly, the compounds were administered intraperitoneally or or orally to carsworth Farms #1 mice (in a volume of 0.01 ml/g of body weight) or Sprague-Dawley rats (in a volume of 0.004 ml/g body weight). Times on peak effect and peak neurologic deficit were determined before the anticonvulsant tests were administered.
(§2) The maximal electroshock seizure test (MES), corneal electrodes primed with a drop of electrolyte solution (0.9% NaCl) were applied to the eyes of the animal and an electrical stimulus (50 mA for mice, 150 mA for rats; 60 Hz) was delivered for 0.2 second at the time of the peak effect of the test compound. The animals were restrained by hand and released at the moment of stimulation in order to permit observation of the seizure.
(§3) In the subcutaneous pentylenetetrazol threshold test (scMet), the convulsant dose (CD97) of pentylenetetrazol (85 mg/kg in rats) was injected at the time of peak effect of the test compound. The animals were isolated and observed for 30 minutes to see whether seizures occurred.
(§4) Acute anti-convulsant drug-induced toxicity in lab animals is usually characterized by some type of neurologic abnormality. In mice, these abnormalities can be detected by the rotorod ataxia test, which is somewhat less useful in rats. In the rotorod ataxia test, neurologic deficit is indicated by the inability of the animal to maintain equilibrium for at least one minute on a knurled rod rotating at 6 rpm. […] Inability to return the leg to normal position indicates a neurologi deficit.
Testing of the compounds was performed in 12 mice at doses of 30, 100, 300 mg/kg (4 mice each) 30 minutes and four hours after the test compounds was administered.

[2] = tested on: MES-induced seizure; pentylenetetrazol induced seizure; test: biological activity per Example 6 (MES, scMet anticonvulsant tests); type: in vivo, carsworth Farms #1 mice or Sprague-Dawley rats; settings: tested per Example 6
Description: as §1, §2, §3, §4

Compound | Activity: 100 mg/kg (mice) | Activity: 300 mg/kg (mice) | other results
Cc1ccc(C(CC(=O)O)NCl)cc1 (stereo not shown) | – | – | solubility (solubility in saline): 7.2-7.1 (M, 4H)4.17-4.09(t, 1H, 7.4 Hz)2.39-2.46 (m, 2H)solubility: ~10 mg/mlsaline
O=C(O)CC(NCl)c1ccc(Cl)cc1 (stereo not shown) | – | – | solubility (solubility in saline): 7.3-7.17 (s, 4H)4.07-4.17 (t, 7H, 7.2 Hz)2.45-2.55 (dt, 4.5 Hz, 3.5Hz)solubility: ~10 mg/mlsaline
NC(CC(=O)O)c1ccccc1 (stereo not drawn) [Compound B5P91, β-Phenyl-β-alanine] | – | – | solubility (solubility in saline): 7.35-7.2 (s, 5H)4.45 (t, 1H, 7.3 Hz)2.8-2.1 (m, 2H)solubility: ~10 mg/mlsaline
CC(C)(C)C1CCC(C(CN)C(=O)O)CC1.Cl (stereo not drawn) [Compound B5P127, α-(4-tert-Butylcyclohexyl)-β-alanine Hydrochloride Salt] | – | – | effective in decreasing seizures by at least 50% [1]: 75%; effective in decreasing seizures (seizure frequency) by at least 50% [1]: 50%
CC1NC(=O)C(c2ccc(O)cc2)NC1=O [c/D-(p-OH)-Peg-L-Ala] | 0 | 0 | –
NCCCCC1NC(=O)C(c2ccc(O)cc2)NC1=O [c/D-(p-OH)-Peg-L-Lys] | 0 | 0 | –
NCCCCC1NC(=O)C(c2ccccc2)NC1=O [c/D-Peg-D-Lys] | 0 | 0 | –
CSCCC1NC(=O)C(c2ccccc2)NC1=O [c/D-Peg-D-Met] | 0 | 0 | –
NCCC[C@H]1NC(=O)[C@@H](c2ccccc2)NC1=O [c/D-Peg-D-Orn] | 0 | 0 | –
O=C1CNC(=O)[C@@H](c2ccccc2)N1 [c/D-Peg-Gly] | 1 | 2 | Activity: 30 mg/kg (mice): 0
C[C@@H]1NC(=O)[C@@H](c2ccccc2)NC1=O [c/D-Peg-L-Ala, Cyclo-D-phenylglycine-L-alanine] | 3 | 4 | anti-convulsive activity (mice): strong anti-convulsive activity; Activity: 30 mg/kg (mice): 2
N=C(N)NCCC[C@@H]1NC(=O)[C@@H](c2ccccc2)NC1=O [c/D-Peg-L-Arg] | 0 | 0 | –
NCCCCC1NC(=O)C(c2ccccc2)NC1=O [c/D-Peg-L-Lys] | 0 | 1 | –
CSCCC1NC(=O)C(c2ccccc2)NC1=O [c/D-Peg-L-Met] | 0 | 1 | –
NCCCC1NC(=O)C(c2ccccc2)NC1=O [c/D-Peg-L-Ornithine (Orn)] | 0 | 0 | –
NCCC1NC(=O)C(c2ccccc2)NC1=O [c/D-Peg-L-diaminobutyric acid] | 0 | 0 | –
C[C@@H]1NC(=O)[C@H](c2ccccc2)NC1=O [c/L-Peg-L-Ala] | 0 | 0 | –
CC(C)CC1NC(=O)C(C)NC1=O [c/L-alanine-D-leucine] | – | – | anti-convulsive activity (mice): active
O=C1NC(=O)C(c2ccccc2)(c2ccccc2)N1 [phenytoin] | – | – | preventing the onset of seizures ([1]; administered at Time 1, 20 mg/kg/day i.v. for 10 day): ineffective; effective in decreasing seizures (seizure frequency) by at least 50% [1]: 75%
COc1cc(C)c(C(N)CC(=O)O)cc1C (stereo not drawn) [β-2,5-dimethyl-4-methoxyphenyl-β-alanine] | – | – | biological activity [2]: at least weak activity
NC(CC(=O)O)c1cccc(C(F)(F)F)c1F (stereo not drawn) [β-2-fluoro-3-(trifluoromethyl)phenyl-β-alanine] | – | – | biological activity [2]: moderate
COc1cccc(C(N)CC(=O)O)c1O (stereo not drawn) [β-2-hydroxy-3-methoxyphenyl-β-alanine] | – | – | biological activity [2]: at least weak activity
COc1ccc(C(N)CC(=O)O)cc1C (stereo not drawn) [β-3-methyl-4-methoxyphenyl-β-alanine] | – | – | biological activity [2]: slight
NCCC(=O)O [β-alanine] | – | – | effective in decreasing seizures by at least 50% [1]: 75%; effective in decreasing seizures (seizure frequency) by at least 50% [1]: 50%
NC(CC(=O)O)c1ccc(OC(F)(F)F)cc1 (stereo not drawn) [β-p-(trifluoromethoxy)phenyl-β-alanine] | – | – | biological activity [2]: at least weak activity
Cc1ccc(C(N)CC(=O)O)cc1 (stereo not drawn) [β-p-methylphenyl-β-alanine hydrochloride] | – | – | biological activity [2]: at least weak activity
cyclo-D-phenylglycyl-(S-Me)-L-cysteine [c/D-Peg-L-(S-methyl)-L-cysteine] | 3 | 4 | anti-convulsive activity (mice): strong anti-convulsive activity; Activity: 30 mg/kg (mice): 2
